# Measured values: US20240277715A1, “COMBINATION THERAPIES COMPRISING A METTL3 INHIBITOR AND A FURTHER ANTICANCER AGENT” (Storm Therapeutics Limited, priority 2021, published 2024)
# Legend:
# MOLM13 AML cell line = assay: AML cell viability, CellTiter-Glo combination matrix, MOLM13; type: cell-based; conditions: MOLM13 AML cell line
# Procedure: The sensitivity of AML cell lines to combinations of METTL3 inhibitor and standards of care was determined as described. Dose response curves of venetoclax were determined either alone or in the presence of different concentrations of METTL3 inhibitor that are known to be active in cells.
# Synergistic interactions occur when the IC50 value decreases in the presence of METTL3 inhibitor. […] Antagonistic interactions occur when the IC50 value increases in the presence of METTL3 inhibitor.
# 24 h before cell treatment, homogenize, stain with Trypan blue and count viable cells using CellOMeter Auto T4. Dilute cells in media at 400 000 cells/ml to ensure an exponential growth the day after.
# On treatment day, homogenize, stain with Trypan blue and count viable cells using CellOMeter Auto T4. Dilute to the proper cell seeding density according to Table 6 in cell media.
# • Dispense drug (see Table 7) and METTL3 inhibitor in semi-log dose-response matrix and DMSO in 384-well plates using D300e Nanodispenser (Tecan). • 6× compound solution preparation: add 40 μL of cell medium in compound-containing plates and homogenize using the ViaFlo device (Integra) • Dispense 30 μl of cell suspension per well in three replicate 384-well white Ultra-Low-Attachment plates (Sbio) using ViaFlow device (Integra) • Transfer 6 μL of the 6× compound solution in each 30 μL cell suspension-containing plate. • Incubate at 37° C. 5% CO2 for 3 to 5 days.
# • Add 35 μL CellTiter-Glo (Promega) in wells (vol/vol) using ViaFlo device (Integra). • Incubate at RT 10 min in the dark, with agitation the first minute, and read luminescence on the Ensight device (Perkin Elmer).
# Raw data were converted to % viability by normalization to DMSO controls. IC50 determination was performed using GraphPad Prism and fitting curves to the standard nonlinear regression four parameter equation (Y=Bottom+(Top-Bottom)/(1+(IC50/X)^HillSlope)) least squares method, and synergy was assessed by comparison of IC50 values of the standard of care in the presence or absence of different concentrations of METTL3 inhibitor (see FIGS. 12 to 19).
# EMT6 mouse breast cancer = assay: Subcutaneous EMT6 breast cancer syngeneic model, anti-tumour efficacy; type: in vivo; conditions: 10 per group
# Source text: (§1) The in vivo effect of METTL3 inhibition in combination with anti-PD1 immune checkpoint inhibitor was investigated using syngeneic mouse tumour models in immune-competent hosts. Mouse tumour models can be grown in appropriate host strains and are widely used to investigate the effects of therapeutic agents on the immune system and cancer growth. There are a limited range of mouse syngeneic tumour models available, far fewer than human cell lines, and they are widely used in the art to support potential clinical utility of immune stimulatory approaches across multiple indications. We exemplify the potential role of STM3480 and combinations with immune checkpoint inhibitors such as anti-PD-1 antibodies in multiple tumour models including A20 (murine B cell lymphoma), EMT-6 (murine breast cancer) and CT-26 (murine colorectal cancer).
# The objective of this study is to assess the anti-tumour efficacy of STM3480 in combination with anti-PD1 in subcutaneous EMT6 mouse breast cancer model in female BALB/c mice.
# EMT6 (#ATCC CRL-2755) mouse breast cancer cells were cultured in (Waymouth's MB 752/1 Medium with 2 mM L-glutamine, 85%; foetal bovine serum (non-heat inactivated), 15%) media. […]
# Tumours were measured three times a week and tumour volumes estimated using the formula 0.5 (L×W^2) by measuring the tumour in two dimensions using electronic callipers for the duration of the study. […]
# [1] = system: A20 mouse B cell lymphoma; assay: Subcutaneous A20 lymphoma syngeneic model, anti-tumour efficacy; type: in vivo
# Source text: as §1
# The objective of this study is to assess the anti-tumour efficacy of STM3480 in combination with anti-PD1 in subcutaneous A20 mouse B cell lymphoma cancer model in female BALB/c mice.
# A20 (#ATCC TIB-208) mouse B cell lymphoma cells were cultured in (RPMI-1640+10% non H.I. FBS+0.05 mM 2-mercaptoethanol) media. 5×10^5 viable cells in 0.1 ml PBS were injected subcutaneously into the left flank of 7-9 week old female BALB/cN (BALB/cAnNCrl) Crl mice utilising 27 gauge needles following skin disinfection with 70% ethanol.
# Tumours were measured three times a week and tumour volumes estimated using the formula 0.5 (L×W^2) by measuring the tumour in two dimensions using electronic callipers for the duration of the study.
# Mice were randomly allocated to four treatment groups and treatment commenced when tumours reached a mean volume of ˜50-100 mm^3. Mice were allocated to their treatment groups with uniform mean tumour volume between groups. Treatment was continued for up to 3 weeks, or until individual mice were sacrificed for humane reasons according to Home Office license regulations (e.g. body weight loss >20%; tumour volume >1500 mm^3; tumour ulceration; loss of clinical condition). The final dose was given on day 32 after implantation.
# Vehicle for STM3480—Hydroxypropyl-β-Cyclodextrin (HPBCD)/Sodium Acetate buffer pH:4.6 50 mM (10%/90%; w/v): Weigh 1.025 g of sodium acetate anhydrous. Add 700 μl of glacial acetic acid then make up to 500.0 ml with ultrapurified water. pH:4.6 50 mM.
# For 1 ml volume 5 mg/ml STM3480 dosing solution: Weigh 5.0 mg of STM00003480 compound (Batch: EV-WZM001-421-002). Add 1.0 mL of HPBCD/Acetate buffer pH:4.6 50 mM (10%/90%; w/v). Magnetic stirring at high speed at ambient temperature; Overnight stirring may be required if there are any signs of precipitation. The formulation is a slight yellow solution with very few particles in suspension. Homogenize with a vortex before administration. […]
smiles,measurement,setting,value
"O=C(NCc1ccc2cc(CNCC3CCC3)[nH]c2c1)c1cc(=O)n2ccccc2n1 [STM3480, N-[(2-{[(cyclobutylmethyl)amino]methyl}-1H-indol-6-yl)methyl]-4-oxo-4H-pyrido[1,2-a]pyrimidine-2-carboxamide]",interaction with venetoclax,MOLM13 AML cell line,synergistic
same,Mean tumour volume d21,"EMT6 mouse breast cancer; EMT6, female BALB/c mice, STM3480 50 mg/kg p.o., anti PD1 10 mg/kg i.p. BIW, up to 3 weeks",141 mm3
same,No. mice with complete regressions,EMT6 mouse breast cancer; EMT6,1
same,tumour growth compared to the vehicle control (mean tumour volume),"[1]; A20, FIG. 3",reduction of tumour growth
same,Mean tumour volume d24,"[1]; A20, female BALB/c mice, STM3480 50 mg/kg p.o., anti PD1 10 mg/kg i.p. BIW, up to 3 weeks, 10 per group",425 mm3
same,"progressive tumour growth, animals","[1]; A20, individual tumours (FIG. 4)",8/10
same,No. mice with complete regressions,"[1]; A20, STM3480 50 mg/kg p.o., anti PD1 10 mg/kg i.p. BIW, 10 per group",1
